Results as given in patent publication US20250066360A1, “PYRIDINE-CONTAINING POLYCYCLIC DERIVATIVE, AND PREPARATION METHOD THEREFOR AND USE THEREOF” (SHANGHAI HANSOH BIOMEDICAL CO., LTD., priority 2022, published 2025).

Tests used:
[1] = tested on: p-Hsp27 in U937 cells; test: Inhibition of p-Hsp27 in LPS-stimulated U937 cells (ELISA); assay type: cell-based; settings: Homo sapiens, U-937; PMA-differentiated U937, 10 ng/ml LPS 0.5 hours; read-out: U937 cell activity test p-HSP27 IC50
Description: U937 cells were treated with 20 ng/ml PMA for differentiation overnight, and after replacement with a fresh culture medium, the U937 cells were rested overnight. After differentiation, the U937 cell were digested and counted, and 25,000 cells per well were seeded in a 96-well plate until the cells adhered to the wall. A compound concentration gradient was prepared, the cells were pretreated with the compound for 1 hour (the highest final concentration of the compound was 1 μM, diluted in 3-fold concentration gradient), and 10 ng/ml LPS (Lipopolysaccharides from Escherichia coli O111:B4) was added for stimulation for 0.5 hours. After the cells were washed with PBS, the cells were lysed with a lysis solution. p-Hsp27 in the cell lysate was detected by using Phospho-HSP27 (S78/S82) DuoSet IC ELISA kit. For specific steps, reference could be made to the standard steps provided by the kit manufacturer.
Calculation of p-Hsp27 inhibition rate: Inhibition rate %=[(mean value of p-Hsp27 in positive control well−mean value of p-Hsp27 in sample well)/(mean value of p-Hsp27 in positive control well−mean value of p-Hsp27 in negative control well)]×100%, wherein the positive control well was a well without a compound (DMSO-treated well), and the negative control well was a well without LPS stimulation.
(§1) Dose response curve fitting: Log(inhibitor) vs. response−Variable slope (four parameters) in GraphPad Prism 6 was used for fitting equation analysis of the compound concentration and the corresponding inhibition rate, and the curve was fitted to obtain the IC50 value of the compound.
(§2) The fitting calculation equation was Y=Bottom+(Top−Bottom)/(1+10^((Log IC50−X)*HillSlope)).

[2] = target: T1, p38α/MK2 (Homo sapiens, UniProt P49137+Q16539); test: Inhibition of p38α/MK2 enzyme activity (TR-FRET, ULight-CREBtide); assay type: biochemical; settings: for IC50: 0.06 nM p38a, 1.2 nM MK2, 25 μM ATP, read-out: p38/MK2 IC50; for Selectivity ratio (p38 IC50 / p38/MK2 IC50): selectivity ratio p38 IC50 over p38/MK2 IC50
T1 construct: purchased R & D systems (p38 alpha); Thermo (MK2) 5477-KS-010; PV3316
Description: (§3) 50 nM ULight-CREBtide and 25 μM ATP (ATP Solution) were added, and the mixture was reacted at room temperature for 1.5 hours. An equal volume of a detection and termination mixed solution (1×LANCE detection buffer containing 20 mM EDTA and 2 nM Europium-anti-phospho-CREB) was added, the mixture was mixed until uniform and centrifuged, a plate sealing film was attached, and a reaction was performed at room temperature for 1 hour. TR-FRET program of the EnVision instrument was used to read the plate, and the fluorescence value of each well was detected at 665 nm/615 nm.
(§4) Calculation was performed on the raw data (665 nm/615 nm reading ratio) according to the following formula to obtain the inhibition rate. Inhibition rate %=[(mean value in positive control well−value in sample well)/(mean value in positive control well−mean value in negative control well)]×100, wherein the positive control well was a reaction well without a compound […], and the negative control well was a reaction wells without an enzyme.
(§5) Log(inhibitor) vs. response−Variable slope (four parameters) in GraphPad Prism 6 was used for fitting equation analysis of the compound concentration and the corresponding inhibition rate, and the curve was fitted to obtain the IC50 value of the compound.
as §2

[3] = tested on: TNF-α in U937 cells; test: Inhibition of the expression level of TNF-α in LPS-stimulated U937 cells (ELISA); assay type: cell-based; settings: Homo sapiens, U-937; PMA-differentiated U937, 10 ng/ml LPS 4 hours; read-out: U937 cell activity test TNF-α IC50
Description: U937 cells were treated with 20 ng/ml PMA for differentiation overnight, and after replacement with a fresh culture medium, the U937 cells were rested overnight. After differentiation, the U937 cells were digested and counted, and 50,000 cells per well were seeded in a 96-well plate until the cells adhered to the wall. A compound concentration gradient was prepared, the cells were pretreated with the compound for 1 hour (the highest final concentration of the compound was 1 μM, diluted in 3-fold concentration gradient), and 10 ng/ml LPS (Lipopolysaccharides from Escherichia coli O111:B4) was added for stimulation for 4 hours. Thereafter, the culture supernatant was collected by centrifugation and used for subsequent ELISA to detect the concentration of TNF-α in the supernatant. The concentration of TNF-α was detected according to the standard steps provided by the ELISA kit manufacturer.
A standard curve was plotted by a linear regression method from a TNF-α standard, and the concentration of TNF-α in a sample was derived by conversion according to the standard curve.
Calculation of inhibition rate: Inhibition rate %=[(mean value of TNF-α concentration in positive control well−mean value of TNF-α concentration in sample well)/(mean value of TNF-α concentration in positive control well−mean value of TNF-α concentration in negative control well)]×100%, wherein the positive control well was a well without a compound (DMSO-treated well), and the negative control well was a culture medium well.
as §1, with “compound. The fitting calculation equation was Y=Bottom+(Top−Bottom)/(1+10^((Log IC50−X)*HillSlope)).” for “compound.”

[4] = target: T2, p38a (Active p38 alpha Protein) (Homo sapiens, UniProt Q16539); test: Inhibition of p38 enzyme activity (TR-FRET, ULight-MBP); assay type: biochemical; settings: 3 nM p38a, 50 μM ATP
T2 construct: purchased R & D systems 5477-KS-010
Description: as §3, with “Experimental method for determining the p38 enzyme activity: 3 nM p38a (Active p38 alpha Protein) and compounds diluted in a certain concentration gradient were incubated in 1× enzyme reaction buffer (50 mM HEPES pH 7.5, 1 mM EGTA, 10 mM MgCl2, 2 mM DTT, 0.01% Tween-20) for 1 hour. 50” for “50”, “ULight-MBP” for “ULight-CREBtide”, “50” for “25”, “(ATP 10 mM” for “(ATP”, “Europium-anti-P-MBP)” for “Europium-anti-phospho-CREB)”
as §4, §5, §2

T1 sequence (Q16539 whole entry): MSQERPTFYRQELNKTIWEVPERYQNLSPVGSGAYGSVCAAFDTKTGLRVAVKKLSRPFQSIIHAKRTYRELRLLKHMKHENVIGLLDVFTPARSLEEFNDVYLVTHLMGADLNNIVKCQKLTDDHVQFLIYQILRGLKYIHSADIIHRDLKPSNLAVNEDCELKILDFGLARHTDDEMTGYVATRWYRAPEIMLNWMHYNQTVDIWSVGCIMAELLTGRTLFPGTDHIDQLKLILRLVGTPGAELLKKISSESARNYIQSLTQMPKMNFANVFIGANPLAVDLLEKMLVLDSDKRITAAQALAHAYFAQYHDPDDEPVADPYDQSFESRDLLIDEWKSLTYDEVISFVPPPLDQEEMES
T1 sequence (P49137 whole entry): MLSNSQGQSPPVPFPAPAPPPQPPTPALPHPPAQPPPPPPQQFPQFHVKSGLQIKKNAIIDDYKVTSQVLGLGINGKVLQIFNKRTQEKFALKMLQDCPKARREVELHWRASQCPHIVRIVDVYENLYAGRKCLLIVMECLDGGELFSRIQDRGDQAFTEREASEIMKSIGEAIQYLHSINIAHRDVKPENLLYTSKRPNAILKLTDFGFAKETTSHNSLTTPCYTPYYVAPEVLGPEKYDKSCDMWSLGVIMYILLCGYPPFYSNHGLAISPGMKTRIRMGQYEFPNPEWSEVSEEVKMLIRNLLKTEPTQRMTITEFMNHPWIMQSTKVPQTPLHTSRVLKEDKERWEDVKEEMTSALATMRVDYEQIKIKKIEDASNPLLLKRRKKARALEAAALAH
T2 sequence (Q16539 whole entry): as the sequence (Q16539 whole entry) above

| SMILES | IC50 [1] | IC50 [2] | Selectivity ratio (p38 IC50 / p38/MK2 IC50) [2] | IC50 [3] | IC50 [4] |
| --- | --- | --- | --- | --- | --- |
| [2H]C([2H])(Oc1cc2n(c(=O)c1Cl)-c1cc(-c3ccnc(C(C)(C)O)n3)ncc1CCCC2)c1ncc(F)cc1F [Example 1-1, (S)-11-Chloro-10-((3,5-difluoropyridin-2-yl)methoxy-d2)-2-(2-(2-hydroxypropan-2-yl)pyrimidin-4-yl)-5,6,7,8-tetrahydro-12H-dipyrido[1,2-a:3′,4′-g]azol-12-one] | 0.17 nM | 0.71 nM | 109 | 1.2 nM | 77.4 nM |
| [2H]C([2H])(Oc1cc2n(c(=O)c1Cl)-c1cc(-n3ccc(C(C)(C)O)n3)ncc1CCCC2)c1ncc(F)cc1F [Example 2-1, (S)-11-chloro-10-((3,5-difluoropyridin-2-yl)methoxy-d2)-2-(3-(2-hydroxypropan-2-yl)-1H-pyrazol-1-yl)-5,6,7,8-tetrahydro-12H-dipyrido[1,2-a:3′,4′-g]azol-12-one] | 0.28 nM | 0.42 nM | – | 0.33 nM | – |
| [2H]C([2H])(Oc1cc2n(c(=O)c1Cl)-c1cc(-n3cc(F)c(C(C)(C)NC(C)=O)n3)ncc1CCCC2)c1ncc(F)cc1F [Example 3-1, (S)—N-(2-(1-(11-chloro-10-((3,5-difluoropyridin-2-yl)methoxy-d2)-12-carbonyl-6,7,8,12-tetrahydro-5H-dipyrido[1,2-a:3′,4′-g]azocin-2-yl)-4-fluoro-1H-pyrazol-3-yl)propan-2-yl)acetamide] | 0.15 nM | 0.18 nM | – | 0.18 nM | – |
| [2H]C([2H])(Oc1cc2n(c(=O)c1Cl)-c1cc(-c3ccnc(C(C)(C)NC(C)=O)n3)ncc1CCCC2)c1ncc(F)cc1F [Example 4-1, (S)—N-(2-(4-(11-chloro-10-((3,5-difluoropyridin-2-yl)methoxy-d2)-12-carbonyl-6,7,8,12-tetrahydro-5H-dipyrido[1,2-a:3′,4′-g]azocin-2-yl)pyrimidin-2-yl)propan-2-yl)acetamide] | 0.35 nM | – | – | 1.2 nM | – |
| [2H]C([2H])(Oc1cc(C)n(-c2cc(-n3cccc(C(C)(C)NC(C)=O)c3=O)ncc2C)c(=O)c1Cl)c1ncc(F)cc1F [Example 5-1, (S)—N-(2-(3″-chloro-4″-((3,5-difluoropyridin-2-yl)methoxy-d2)-5′,6″-dimethyl-2,2″-dicarbonyl-2H,2″H-[1,2′:4′,1″-terpyridin]-3-yl)propan-2-yl)acetamide] | – | 0.79 nM | 666 | – | 526 nM |
| [2H]C([2H])(Oc1cc2n(c(=O)c1Cl)-c1c(cnc(-n3ccc(C(C)(C)O)n3)c1F)CCCC2)c1ncc(F)cc1F [Example 8-1, (R)-11-chloro-10-((3,5-difluoropyridin-2-yl)methoxy-d2)-1-fluoro-2-(3-(2-hydroxypropan-2-yl)-1H-pyrazol-1-yl)-5,6,7,8-tetrahydro-12H-dipyrido[1,2-a:3′,4′-g]azocin-12-one] | 0.22 nM | 0.25 nM | – | 0.19 nM | – |

Second part, the molecule after the results:

| IC50 [1] | IC50 [2] | Selectivity ratio (p38 IC50 / p38/MK2 IC50) [2] | IC50 [3] | IC50 [4] | SMILES |
| --- | --- | --- | --- | --- | --- |
| 0.13 nM | 0.13 nM | – | 0.1 nM | – | [2H]C([2H])(Oc1cc(C)n(-c2cc(-n3cccc(C(C)(C)O)c3=O)ncc2Cl)c(=O)c1Cl)c1ncc(F)cc1F [Example 10-1, (S)-3″,5′-dichloro-4″-((3,5-difluoropyridin-2-yl)methoxy-d2)-3-(2-hydroxypropan-2-yl)-6″-methyl-2H,2″H-[1,2′:4′,1″-terpyridine]-2,2″-dione] |
| 0.1 nM | 0.28 nM | 346 | 0.21 nM | 96.9 nM | [2H]C([2H])(Oc1cc(C)n(-c2cc(-n3cccc(C(C)(C)O)c3=O)ncc2C)c(=O)c1Cl)c1ncc(F)cc1F [Example 11-1, (S)-3″-chloro-4″-((3,5-difluoropyridin-2-yl)methoxy-d2)-3-(2-hydroxypropan-2-yl)-5′,6″-dimethyl-2H,2″H-[1,2′:4′,1″-terpyridine]-2,2″-dione] |
| 0.56 nM | 0.12 nM | 138 | 0.51 nM | 16.5 nM | [2H]C([2H])(Oc1cc(C)n(-c2cc(-n3cccc(C(C)(C)NC(C)=O)c3=O)ncc2C)c(=O)c1Cl)c1ccc(F)cc1F [Example 13-1, (S)—N-(2-(3″-chloro-4″-((2,4-difluorophenyl)methoxy-d2)-5′,6″-dimethyl-2,2″-dicarbonyl-2H,2″H-[1,2′:4′,1″-terpyridin]-3-yl)propan-2-yl)acetamide] |
| 0.28 nM | 0.49 nM | – | 0.85 nM | – | [2H]C([2H])(Oc1cc2n(c(=O)c1Cl)-c1cc(-c3ccnc(C(C)(C)O)n3)ncc1/C=C\CC2)c1ncc(F)cc1F [Example 16-1, (S,Z)-11-chloro-10-((3,5-difluoropyridin-2-yl)methoxy-d2)-2-(2-(2-hydroxypropan-2-yl)pyrimidin-4-yl)-7,8-dihydro-12H-dipyrido[1,2-a:3′,4′-g]azocin-12-one] |
| – | 0.27 nM | – | – | – | [2H]C([2H])(Oc1cc2n(c(=O)c1Cl)-c1cc(-n3ccc(C(C)(C)O)n3)ncc1/C=C\CC2)c1ncc(F)cc1F [Example 17-1, (S,Z)-11-chloro-10-((3,5-difluoropyridin-2-yl)methoxy-d2)-2-(3-(2-hydroxypropan-2-yl)-1H-pyrazol-1-yl)-7,8-dihydro-12H-dipyrido[1,2-a:3′,4′-g]azocin-12-one] |
| – | 0.12 nM | – | – | – | [2H]C([2H])(Oc1cc2n(c(=O)c1Cl)-c1cc(-n3cc(F)c(C(C)(C)NC(C)=O)n3)ncc1/C=C\CC2)c1ncc(F)cc1F [Example 18-1, (S,Z)—N-(2-(1-(11-chloro-10-((3,5-difluoropyridin-2-yl)methoxy-d2)-12-carbonyl-8,12-dihydro-7H-dipyrido[1,2-a:3′,4′-g]azocin-2-yl)-4-fluoro-1H-pyrazol-3-yl)propan-2-yl)acetamide] |
| – | 0.12 nM | – | – | – | [2H]C([2H])(Oc1cc2n(c(=O)c1Cl)-c1cc(-n3cccc(C(C)(C)O)c3=O)ncc1/C=C\CC2)c1ncc(F)cc1F [Example 19-1, (S,Z)-11-chloro-10-((3,5-difluoropyridin-2-yl)methoxy-d2)-2-(3-(2-hydroxypropan-2-yl)-2-carbonylpyridin-1(2H)-yl)-7,8-dihydro-12H-dipyrido[1,2-a:3′,4′-g]azocin-12-one] |
